Reference: the NIST ThermoML archive (doi:10.1016/j.jct.2016.03.030)

Assay: xn = mol fraction of the nth substance listed
Details: 100 kPa, Liquid; for viscosity: Falling or rolling sphere viscometry; for mass density: Vibrating tube method

CCCCC[N+]1(C)CCCCC1.[Br-] [1-methyl-1-pentylpiperidinium bromide] + O
Details	mass density [kg/m3]	viscosity [mPa·s]
298.15 K, x1 = 0.003	1003.5	–
298.15 K, x1 = 0.0072	1012	–
298.15 K, x1 = 0.0119	1021.1	–
298.15 K, x1 = 0.0427	1070.7	2.961
298.15 K, x1 = 0.0615	1091.4	4.385
298.15 K, x1 = 0.0839	1110.2	6.713
298.15 K, x1 = 0.1192	1131.1	12.34
298.15 K, x1 = 0.1491	1144	17.14
298.15 K, x1 = 0.2004	1159.3	27.79
298.15 K, x1 = 0.2206	1163.7	41.58
298.15 K, x1 = 0.2393	1167.7	58.11
298.15 K, x1 = 0.2655	1172.3	95.22
298.15 K, x1 = 0.2745	1173.8	107.8
303.15 K, x1 = 0.003	1002	–
303.15 K, x1 = 0.0072	1010.4	–
303.15 K, x1 = 0.0119	1019.3	–
303.15 K, x1 = 0.0427	1067.8	2.439
303.15 K, x1 = 0.0615	1088.2	3.663
303.15 K, x1 = 0.0839	1106.7	5.513
303.15 K, x1 = 0.1192	1127.5	9.841
303.15 K, x1 = 0.1491	1140.4	12.93
303.15 K, x1 = 0.2004	1153.7	21.75
303.15 K, x1 = 0.2206	1160.2	29.41
303.15 K, x1 = 0.2393	1164.2	44.51
303.15 K, x1 = 0.2655	1168.8	68.59
303.15 K, x1 = 0.2745	1170.3	77.28
308.15 K, x1 = 0.003	1000.2	–
308.15 K, x1 = 0.0072	1008.6	–
308.15 K, x1 = 0.0119	1017.3	–
308.15 K, x1 = 0.0427	1064.8	1.881
308.15 K, x1 = 0.0615	1084.9	3.087
308.15 K, x1 = 0.0839	1103.2	4.576
308.15 K, x1 = 0.1192	1123.9	8.001
308.15 K, x1 = 0.1491	1136.8	9.983
308.15 K, x1 = 0.2004	1152.1	16.35
308.15 K, x1 = 0.2206	1156.7	23.02
308.15 K, x1 = 0.2393	1160.7	33.69
308.15 K, x1 = 0.2655	1165.3	50.52
308.15 K, x1 = 0.2745	1166.8	56.51
313.15 K, x1 = 0.003	998.2	–
313.15 K, x1 = 0.0072	1006.5	–
313.15 K, x1 = 0.0119	1015.1	–
313.15 K, x1 = 0.0427	1061.8	1.639
313.15 K, x1 = 0.0615	1081.5	2.632
313.15 K, x1 = 0.0839	1099.7	3.846
313.15 K, x1 = 0.1192	1120.3	6.581
313.15 K, x1 = 0.1491	1133.2	8.698
313.15 K, x1 = 0.2004	1148.2	14.09
313.15 K, x1 = 0.2206	1153.1	18.11
313.15 K, x1 = 0.2393	1157.1	25.85
313.15 K, x1 = 0.2655	1161.8	38.16
313.15 K, x1 = 0.2745	1163.3	42.34
318.15 K, x1 = 0.003	996.1	–
318.15 K, x1 = 0.0072	1004.2	–
318.15 K, x1 = 0.0119	1012.8	–
318.15 K, x1 = 0.0427	1058.7	1.441
318.15 K, x1 = 0.0615	1078.1	2.267
318.15 K, x1 = 0.0839	1096.1	3.269
318.15 K, x1 = 0.1192	1116.6	5.458
318.15 K, x1 = 0.1491	1129.5	7.311
318.15 K, x1 = 0.2004	1144.5	11.22
318.15 K, x1 = 0.2206	1149.5	14.1
318.15 K, x1 = 0.2393	1153.6	20.21
318.15 K, x1 = 0.2655	1158.3	29.44
318.15 K, x1 = 0.2745	1159.8	32.5
323.15 K, x1 = 0.003	993.7	–
323.15 K, x1 = 0.0072	1001.9	–
323.15 K, x1 = 0.0119	1010.3	–
323.15 K, x1 = 0.0427	1055.5	1.261
323.15 K, x1 = 0.0615	1074.7	1.945
323.15 K, x1 = 0.0839	1092.5	2.77
323.15 K, x1 = 0.1192	1113	4.499
323.15 K, x1 = 0.1491	1125.8	6.029
323.15 K, x1 = 0.2004	1141.2	9.723
323.15 K, x1 = 0.2206	1145.9	12.33
323.15 K, x1 = 0.2393	1150.1	15.88
323.15 K, x1 = 0.2655	1154.8	22.79
323.15 K, x1 = 0.2745	1156.3	25.06
328.15 K, x1 = 0.003	990.9	–
328.15 K, x1 = 0.0072	999.4	–
328.15 K, x1 = 0.0119	1007.7	–
328.15 K, x1 = 0.0427	1052.2	1.11
328.15 K, x1 = 0.0615	1071.2	1.682
328.15 K, x1 = 0.0839	1088.9	2.369
328.15 K, x1 = 0.1192	1109.3	3.749
328.15 K, x1 = 0.1491	1122.1	5.354
328.15 K, x1 = 0.2004	1137.5	8.195
328.15 K, x1 = 0.2206	1142.3	10.68
328.15 K, x1 = 0.2393	1146.5	12.74
328.15 K, x1 = 0.2655	1151.3	18.03
328.15 K, x1 = 0.2745	1152.8	19.71
333.15 K, x1 = 0.003	989.3	–
333.15 K, x1 = 0.0072	996.3	–
333.15 K, x1 = 0.0119	1004.9	–
333.15 K, x1 = 0.0427	1048.8	1.034
333.15 K, x1 = 0.0615	1067.6	1.474
333.15 K, x1 = 0.0839	1085.2	2.055
333.15 K, x1 = 0.1192	1105.5	3.014
333.15 K, x1 = 0.1491	1118.4	4.513
333.15 K, x1 = 0.2004	1132.9	7.033
333.15 K, x1 = 0.2206	1138.7	8.945
333.15 K, x1 = 0.2393	1143	10.47
333.15 K, x1 = 0.2655	1147.7	14.56
333.15 K, x1 = 0.2745	1149.3	15.86
338.15 K, x1 = 0.003	986	–
338.15 K, x1 = 0.0072	993.1	–
338.15 K, x1 = 0.0119	1002	–
338.15 K, x1 = 0.0427	1045.4	0.886
338.15 K, x1 = 0.0615	1064	1.3
338.15 K, x1 = 0.0839	1081.4	1.835
338.15 K, x1 = 0.1192	1101.8	2.724
338.15 K, x1 = 0.1491	1114.7	4.032
338.15 K, x1 = 0.2004	1131.2	6.088
338.15 K, x1 = 0.2206	1135.1	7.421
338.15 K, x1 = 0.2393	1139.4	8.696
338.15 K, x1 = 0.2655	1144.2	11.95
338.15 K, x1 = 0.2745	1145.8	12.94
343.15 K, x1 = 0.003	983.6	–
343.15 K, x1 = 0.0072	990.1	–
343.15 K, x1 = 0.0119	999	–
343.15 K, x1 = 0.0427	1041.8	0.85
343.15 K, x1 = 0.0615	1060.3	1.142
343.15 K, x1 = 0.0839	1077.7	1.634
343.15 K, x1 = 0.1192	1098	2.382
343.15 K, x1 = 0.1491	1110.9	3.697
343.15 K, x1 = 0.2004	1126.4	5.341
343.15 K, x1 = 0.2206	1131.5	6.243
343.15 K, x1 = 0.2393	1135.9	7.34
343.15 K, x1 = 0.2655	1140.6	9.976
343.15 K, x1 = 0.2745	1142.3	10.75
